The source of these data is patent US7612034B2, “Treatment of subnormal bone mineral density” (Genelabs Technologies, Inc., priority 1999, dated 2009).

The subject of data set [1] is systemic lupus erythematous (SLE) patients. In words: Clinical trial data, SLE patients treated with DHEA, BMD. The data set is classed as in vivo, human. The following applies: DHEA 200 mg daily, alone or in combination with prednisone. An excerpt:
Its role in fetal physiology is poorly understood, but it is thought to serve as a precursor for other steroids, leading to androgen and estrogenic steroids. […] However, the administration of DHEA to humans to prevent bone loss or increase bone density is not a recognized treatment for osteoporosis/osteopenia by the medical community.

The next data set concerns ovarectomized rats. The following applies: administration of DHEA to ovarectomized rats; cited from earlier work.
The nature of data set [2]: Stability of DHEA polymorph preparations under ambient conditions. The data set is classed as physicochemical.
In data set [3] the test system is postmenopausal women with low bone mass. The following applies: cited from earlier work.
Data set [4] has as its system Postmenopausal women with osteoporosis. The following applies: cited from earlier work.
The nature of data set [5]: Oral uptake and absorption of DHEA polymorph preparations. Particulars: oral administration.
Data set [6] relates to spine bone mineral density (BMD). The following applies: analysis of 16 studies; chronic calcitonin treatment; cited from earlier work.

As to `C[C@]12CC[C@H](O)CC1=CC[C@@H]1[C@@H]2CC[C@]2(C)C(=O)CC[C@@H]12` [DHEA, dehydroepiandrosterone], in data set [1], the “improvement of BMD” value is on record as “only slight improvement of BMD”. Moreover, in the data set with ovarectomized rats, the bone density result was “increased bone density”.

For `C[C@]12CC[C@H](O)CC1=CC[C@@H]1[C@@H]2CC[C@]2(C)C(=O)CC[C@@H]12` [DHEA form I, dehydroepiandrosterone], the stability result in data set [2] was “highly stable under ambient conditions”.

As for `NCCCC(O)(P(=O)(O)O)P(=O)(O)O` [alendronate], the “increases in BMD compared with calcitonin” value was “significantly greater increases in BMD than did calcitonin” in data set [3] (alendronate 10 mg, LS and HT at 6 and 12 months (p<0.001), FN at 12 months (p=0.003)); “significantly greater increases in BMD than did calcitonin” in data set [4] (alendronate 10 mg, LS and HT at 6 and 12 months (p<0.001), FN at 12 months (p=0.001)).

In the case of `C[C@]12CC[C@H](O)CC1=CC[C@@H]1[C@@H]2CC[C@]2(C)C(=O)CC[C@@H]12` [DHEA form II, dehydroepiandrosterone], the stability entry in data set [2] is on record as “stable under ambient conditions”. Moreover, the rate of absorption result in data set [5] is “rapid rate of absorption (greater than the form I polymorph)”.

Regarding calcitonin, the “BMD changes compared with placebo” value in data set [3] (calcitonin 200 IU daily, LS, HT or FN at 6 or 12 months) is recorded as “not statistically different from placebo”. In addition, the “increases in BMD in total femur and lumbar spine” value in data set [3] (up to 1 year of therapy, calcitonin 200 IU daily) is “only modest increases in BMD”. The “BMD changes compared with placebo at FN” value in data set [4] (calcitonin 200 IU daily, FN at 6 (p=0.003) and 12 months (p=0.008)) is “statistically different from placebo”. Moreover, the “BMD changes compared with placebo at LS or HT” value in data set [4] (calcitonin 200 IU daily, LS or HT at 6 or 12 months) is given as “not significantly different”. For the same molecule, the “mean increase in spine bone mineral density (BMD)” value in data set [6] is 1.97%.
